Assay results as given in patent publication US20100004159A1, “SUBSTITUTED IMIDAZOLONE DERIVATIVES, PREPARATIONS AND USES” (GENFIT, priority 2006, published 2010).

Test system: PPARs target genes
Assay: Expression of PPAR target genes by quantitative RT-PCR in db/db mouse tissue
Type: in vivo
Settings: db/db mice, 50 mpk for 28 days
Method: Samples of hepatic tissue and adipose epididymal tissue were taken and frozen immediately in liquid nitrogen then conserved at −80° C. for later analysis.
Total RNA was extracted from liver fragments by using a NucleoSpine 96 RNA kit (Macherey Nagel, Hoerdt, France) according to the manufacturer's instructions.
The total RNA of the adipose tissue was extracted from tissue fragments with a method using guanidine thiocyanate. The tissues were briefly homogenized in 5 mL of a lysis buffer (guanidine thiocyanate 4M, EDTA pH8 10 mM, Tris HCl pH 7.5 50 mM and b-mercaptoethanol 1.4%) using polytron. To separate the layers, 500 μL of sodium acetate 2M pH4, 5 mL of phenol, and 2 mL of a mixture of chloroform/isoamylic alcohol (49:1) were added. After centrifugation, the aqueous layer was collected and the RNA was precipitated in the presence of isopropanol. After a second precipitation, the RNA was washed with ethanol 70°, dried, then suspended again in an volume of water free of RNase. A step of purification/DNase I treatment of the RNA was then carried out by using NucleoSpin® 96 RNA kit (Macherey-Nagel) according to the manufacturer's instructions. 1 μg of total RNA (quantified by using the Ribogreen RNA quantification kit (Molecular Probes)) was then reverse-transcribed into cDNA by means of a 1 hour reaction at 37° C. in a total volume of 20 μl containing a buffer 1× (Sigma), 1.5 mM of DTT, 0.18 mM, of dNTPs (Promega), 200 ng of pdN6 (Amersham), 30 U of RNase inhibitor (Sigma), and 1 μl of MMLV-RT (Sigma). The quantitative PCR experiments were carried out using the MyiQ Single-Color Real-Time PCR Detection System (Biorad, Marnes-la-Coquette, France) and were performed using the iQ SYBR Green Supermix kit according to the manufacturer's recommendations, in 96-well plates in 5 μl of a diluted reverse transcription solution at a hybridization temperature of 55° C. Primer pairs specific to the studied genes were used:
The quantity of emitted fluorescence is directly proportional to the quantity of cDNA present at the beginning of the reaction and amplified during the PCR. For each target studied, a range of solutions is performed with successive dilutions of a mixture made up of a few μl of different reverse-transcription solutions. The relative levels of expression of each target are thus determined by using efficiency curves obtained with the points relative to the range.
The expression levels of the genes of interest were then normalized, in the hepatic tissue with respect to the level expression of reference gene 36B4 (whose specific primers are: sense primer: 5′-[…]-3′ (SEQ ID NO: 15) and antisense primer: 5′-[…]-3′ (SEQ ID NO: 16)), and in the adipose tissue with respect to reference gene 18S (whose specific primers are: sense primer: 5′-[…]-3′ (SEQ ID NO: 17) and antisense primer: 5′-[…]-3′ (SEQ ID NO: 18)). The induction factor was then calculated for each sample. The higher the induction factor is, the more the compound promotes gene expression. The final result is represented as the average of the induction values within each experimental group.

**Q.** How did the “hepatic expression of the gene coding for CPT1 b” value turn out when CCCCC1=NC2(CCCC2)C(=O)N1Cc1ccc(-c2cccc(OC(C)(C)C(=O)O)c2)cc1 [Compound 1, 2-butyl-1-[(3′-((1-carboxy-1,1-dimethylmethyl)oxy)biphenyl-4-yl)methyl]-4-spirocyclopentyl-1H-imidazol-5(4H)-one] was run?
**A.** Its value is “significant increase”.

**Q.** What about the “hepatic expression of the gene coding for PDK-4” value of the same molecule?
**A.** Its value is “significant increase”.

**Q.** What about the “expression of the gene coding for ApoCIII” value (liver) of the same molecule?
**A.** The value was “significant decrease”.

**Q.** What about the “expression of the gene coding for FBb” value (liver) of the same molecule?
**A.** Its value is “significant decrease”.
